Literature values, collected in patent publication US20100015044A1, “Methods and compositions for diagnosis of iga-and igm-mediated kidney diseases” (priority 2005, published 2010).

Tests used:
IgG = conditions: transfection studies in leukocytes
murine IgM = murine IgM (Mus musculus, UniProt P01872)
IgM = IgM (Homo sapiens, UniProt P01871)
Chain of IgM (P01871 1-433 limits assumed): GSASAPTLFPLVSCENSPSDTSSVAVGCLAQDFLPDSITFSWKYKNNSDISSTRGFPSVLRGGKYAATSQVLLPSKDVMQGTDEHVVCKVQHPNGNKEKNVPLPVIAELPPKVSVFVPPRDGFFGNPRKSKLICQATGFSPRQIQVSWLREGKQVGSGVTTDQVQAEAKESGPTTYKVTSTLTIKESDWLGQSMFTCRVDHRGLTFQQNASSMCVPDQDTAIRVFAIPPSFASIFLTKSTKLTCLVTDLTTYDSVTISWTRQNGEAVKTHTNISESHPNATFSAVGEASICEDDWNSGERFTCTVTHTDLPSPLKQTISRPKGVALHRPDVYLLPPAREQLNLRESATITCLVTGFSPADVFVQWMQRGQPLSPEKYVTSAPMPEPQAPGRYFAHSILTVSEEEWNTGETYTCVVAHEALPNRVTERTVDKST
Chain of IgM (P01591 23-159 partner): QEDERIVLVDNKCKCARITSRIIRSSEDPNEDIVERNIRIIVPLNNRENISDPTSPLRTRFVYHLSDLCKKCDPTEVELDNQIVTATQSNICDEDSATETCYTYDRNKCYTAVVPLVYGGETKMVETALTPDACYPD

Chain of murine IgM (P01872 whole entry, other chains not shown): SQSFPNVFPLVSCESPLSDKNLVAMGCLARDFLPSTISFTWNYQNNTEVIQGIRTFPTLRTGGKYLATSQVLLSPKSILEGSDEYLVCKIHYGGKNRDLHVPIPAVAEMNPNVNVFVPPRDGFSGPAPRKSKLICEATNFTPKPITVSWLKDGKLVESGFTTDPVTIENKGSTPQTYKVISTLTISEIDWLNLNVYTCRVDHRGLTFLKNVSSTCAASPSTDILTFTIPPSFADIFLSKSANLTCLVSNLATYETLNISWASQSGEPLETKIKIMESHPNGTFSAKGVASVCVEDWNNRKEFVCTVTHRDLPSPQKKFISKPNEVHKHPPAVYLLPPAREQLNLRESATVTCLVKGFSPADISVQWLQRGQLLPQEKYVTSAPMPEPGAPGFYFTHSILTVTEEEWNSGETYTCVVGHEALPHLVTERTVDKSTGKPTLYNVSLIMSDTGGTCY
Chain of murine IgM (P01592 23-159 partner limits assumed, other chains not shown): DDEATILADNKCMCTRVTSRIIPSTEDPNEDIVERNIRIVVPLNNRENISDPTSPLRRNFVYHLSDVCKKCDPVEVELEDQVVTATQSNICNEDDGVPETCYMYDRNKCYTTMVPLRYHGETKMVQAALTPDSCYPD

FcαR1: human membrane glycoprotein Fc receptor for IgA
binding to IgG (IgG): does not bind IgG

Sap: 50-residue synthetic peptide including the 29-residue IgA-binding region of Sir22, with C-terminal cysteine (YYALSDAKEEEPRYKALRGENQDLREKERKYQDKIKKLEEKEKNLEKKSC; Sap)
binding to human IgA (human IgA): specifically binds

YDWIPSSAW (IgM binding peptide) [YDWIPS SAW]
binding to other immunoglobulins (other immunoglobulins): no binding abilities | inhibition of human rheumatoid factor induced agglutination of IgG-coated latex beads (human rheumatoid factor): inhibits | binding to murine IgM (murine IgM): high affinity

B1: human Fcα/μ receptor: human receptor constitutively expressed on the majority of B-lymphocytes and macrophages (protein, listed as Homo sapiens)
chain: MDGEATVKPGEQVPLWTHGWPPDDPSPSFAAGSSFALPQKRPHPRWLWEGSLPSRTHLRAMGTLRPSSPLCWREESSFAAPNSLKGSRLVSGEPGGAVTIQCHYAPSSVNRHQRKYWCRLGPPRWICQTIVSTNQYTHHRYRDRVALTDFPQRGLFVVRLSQLSPDDIGCYLCGIGSENNMLFLSMNLTISAGPASTLPTATPAAGELTMRSYGTASPVANRWTPGTTQTLGQGTAWDTVASTPGTSKTTASAEGRRTPGATRPAAPGTGSWAEGSVKAPAPIPESPPSKSRSMSNTTEGVWEGTRSSVTNRARASKDRREMTTTKADRPREDIEGVRIALDAAKKVLGTIGPPALVSETLAWEILPQATPVSKQQSQGSIGETTPAAGMWTLGTPAADVWITSMEAASGEGSAAGDLDAATGDRGPQATLSQTPAVGPWGPPGKESSVKRATCPGLSTLKEIKVSAVLTQNPHSLLCVSAAQEAERVTLIQMTHFLEVNPQADQLPHVERKMLQDDSLPAGASLTAPERNPGP
binding to IgM (IgM): intermediate to high affinity | binding to IgA (IgA): intermediate to high affinity
